Experimental data taken from publication PMC7395068, “The evolution of strategies to minimise the risk of human drug-induced liver injury (DILI) in drug discovery and development” (Archives of Toxicology, 2020).
Where two headings read alike, the source gives them in different places.

Columns and labels:
human hepatocytes = details: In vitro Assay; ref Xu 2008; cited from earlier work
[1] = system: HepG2 cells, primary human hepatocytes; details: In vitro Assay; ref Garside 2014; cited from earlier work
[2] = cited from earlier work
hu-MPCC = details: In vitro Assay; ref Khetani 2012; cited from earlier work
rBsep = details: In vitro Assay; ref Dawson 2012; cited from earlier work
HepG2 cells [3] = details: In vitro Assay; ref Tolosa 2012; cited from earlier work
hLiMTs [4] = details: cited from earlier work; for hLiMTs ATP <100uM: In vitro Assay, ref Proctor 2017
HepG2 cells [5] = details: cited from earlier work; for Cluser analysis / Structural based (HCI): In vitro Assay, ref Persson 2013
[6] = system: isolated mouse liver mitochondria; details: In vitro Assay; ref Porceddu 2012; cited from earlier work
[7] = cited from earlier work; remark: listed apart in the source
HepG2 cells [8] = details: cited from earlier work; for Structural based (HCI): In vitro Assay, ref O'Brien 2006
PHH = details: cited from earlier work; for PHH ATP <100uM: In vitro Assay, ref Proctor 2017
RMPCC's = details: In vitro Assay; ref Khetani 2012; cited from earlier work
[9] = ref Chen 2011; cited from earlier work
Upcyte human hepatocytes = details: In vitro Assay; ref Tolosa 2019; cited from earlier work
HepaRG spheroids [10] = system: HepaRG spheroids
[11] = Plasma free fraction (fu) and unbound Cmax (Cmax,u); format: in vitro ADME, human; details: unbound plasma Cmax
Description: The prediction of DILI severity was evaluated further using the 3D combined HCI assays using plasma-free fraction. The majority of fu values were obtained from literature, when unavailable in-house prediction was utilised. Unbound plasma Cmax concentrations (Cmax,u) were derived by multiplying total plasma Cmax with the corresponding free fraction (fu) for each compound.

hLiMTs [12] = system: hLiMTs
[13] = system: THLE-Null and THLE-3A4 cells; details: In vitro Assay; ref Gustafsson 2014; cited from earlier work
[14] = system: primary human hepatocytes, NIH3T3 fibroblasts, BSEP, CYP3A4; details: cited from earlier work
[15] = read-out: Human plasma Cmax; total plasma Cmax.tot, median of 9 literature references; cited from earlier work
PHH spheroids = details: cited from earlier work
HepaRG spheroids [16] = assay: Combined HCI (HCS) and cellular ATP 3D assay in HepaRG spheroids; details: HepaRG; for AC50 / minimal effective concentration: Homo sapiens
hLiMTs [17] = assay: Combined HCI (HCS) and cellular ATP 3D assay in hLiMTs; details: for AC50 / minimal effective concentration: Homo sapiens
[18] = plasma free fraction; cited from earlier work

C[C@@H]1C[C@H]2[C@@H]3CCC4=CC(=O)C=C[C@]4(C)[C@@]3(F)[C@@H](O)C[C@]2(C)[C@@]1(O)C(=O)CO [dexamethasone]
Structural based (HCI) (human hepatocytes): -VE | Cluster 1-6 +VE Assay [1]: -VE | In vivo DILI ([2]; […]): -VE | In vivo DILI ([2]; ref Dawson 2012): -VE | In vivo DILI ([2]; ref Garside 2014): -VE | In vivo DILI ([2]; ref Gustafsson 2014): -VE | In vivo DILI ([2]; ref Khetani 2012): -VE | In vivo DILI ([2]; ref O'Brien 2006): -VE | In vivo DILI ([2]; ref Persson 2013): -VE | In vivo DILI ([2]; ref Porceddu 2012): +VE | In vivo DILI ([2]; ref Proctor 2017): -VE | In vivo DILI ([2]; ref Tolosa 2012): -VE | In vivo DILI ([2]; ref Tolosa 2019): -VE | In vivo DILI ([2]; ref Williams 2019): -VE | In vivo DILI ([2]; ref Xu 2008): -VE | HMPCC's (hu-MPCC): -VE | Inhibition of rBsep cutoff<1& cmax u>.2 (rBsep): -VE | Inhibition of rBsep cutoff<3 (rBsep): +VE | Structural based (HCI) (HepG2 cells [3]): -VE | hLiMTs ATP <100uM (hLiMTs [4]): -VE | Cluser analysis (HepG2 cells [5]): -VE | Structural based (HCI) (HepG2 cells [5]): -VE | in vitro data EC2<=1x Cmax [6]: -VE | in vitro data EC20<=2uM [6]: -VE | DILI +VE (5-8), DILI -VE (-4) ([7]; ref Chen 2016): -VE | DILI severity category ([7]; ref Chen 2016): Ambiguous DILI-concern | Structural based (HCI) (HepG2 cells [8]): -VE | PHH ATP <100uM (PHH): -VE | RMPCC's (RMPCC's): -VE | DILI Score (FDA) (1-8) [9]: 3 | Upcytes multi donor assay 14day data (Upcyte human hepatocytes): -VE

CC(=O)N1CCN(c2ccc(OCC3COC(Cn4ccnc4)(c4ccc(Cl)cc4Cl)O3)cc2)CC1 (stereo not shown) [ketoconazole, reference compound]
DILI prediction HepaRG spheroids (HCS-MEC) (HepaRG spheroids [10]): +VE (key: +VE: MEC < 25 × Cmax.tot cut-off) | Human plasma Cmax,u [11]: 0.565 µM | Cluster 1-6 +VE Assay [1]: +VE | Assigned DILI category ([2]; Chen et al. 2016 or literature alignment, ref Chen et al. 2016): 3 | In vivo DILI ([2]; […]): +VE | In vivo DILI ([2]; ref Albrecht 2019): +VE | In vivo DILI ([2]; ref Aleo 2019): +VE | In vivo DILI ([2]; ref Dawson 2012): +VE | In vivo DILI ([2]; ref Garside 2014): +VE | In vivo DILI ([2]; ref Gustafsson 2014): +VE | In vivo DILI ([2]; ref O'Brien 2006): +VE | In vivo DILI ([2]; ref Persson 2013): +VE | In vivo DILI ([2]; ref Porceddu 2012): +VE | In vivo DILI ([2]; ref Proctor 2017): +VE | In vivo DILI ([2]; ref Schadt 2015): +VE | In vivo DILI ([2]; ref Tolosa 2019): +VE | In vivo DILI ([2]; ref Vorrink 2018): +VE | In vivo DILI ([2]; ref Williams 2019): +VE | DILI prediction hLiMTs (HCS-MEC) (hLiMTs [12]): +VE (key: +VE: MEC < 25 × Cmax.tot cut-off) | THLE-Null [13]: +VE | Inhibition of rBsep cutoff<1& cmax u>.2 (rBsep): +VE | Inhibition of rBsep cutoff<3 (rBsep): +VE | hLiMTs ATP <100uM (hLiMTs [4]): +VE (IC50 threshold of 100 µM) | hLiMTs/100uM, Proctor (2017) (hLiMTs [4]; hLiMTs, ATP, IC50 threshold 100 µM, ref Proctor et al. 2017): +VE (IC50 threshold of 100 µM) | Cluser analysis (HepG2 cells [5]): +VE | Structural based (HCI) (HepG2 cells [5]): +VE | DILI in vitro assay prediction, Persson (2013) (HepG2 cells [5]; Structural based (HCI), HepG2, ref Persson et al. 2013): +VE | in vitro data EC2<=1x Cmax [6]: +VE | in vitro data EC20<=2uM [6]: -VE | DILI severity category (Chen et al. [2016]) ([7]; LTKB DILIrank category, ref Chen et al. 2016): Most | DILI severity category (Chen 2016) ([7]; human DILI classification, LTKB DILIrank, ref Chen et al. 2016): Most | DILI severity category ([7]; human DILI severity, ref Chen et al.): Most | DILI +VE (5-8), DILI -VE (-4) ([7]; ref Chen 2016): +VE | DILI severity category ([7]; ref Chen 2016): vMost-DILI-Concern | Structural based (HCI) (HepG2 cells [8]): +VE | DILI in vitro assay prediction, O'Brien (2006) (HepG2 cells [8]; Structural based (HCI), HepG2, ref O'Brien et al. 2006): +VE (lowest HCI endpoint IC50 (or in the absence of dose–response < 100 µM) < 30 × total human plasma exposure levels (Cmax.tot)) | Cellular toxicity (3T3 cells) [14]: -VE | Combined Assay [14]: +VE | DILI in vitro assay prediction, Schadt (2015) [14]: +VE | GSH adduct HML [14]: -VE | Hepatocyte cellular toxicity [14]: +VE | MitoTox 3T3 [14]: -VE | TDI CYP3A4 [14]: -VE | hBSEP inhibition [14]: +VE | PHH/100uM, Proctor (2017) (PHH; 2D PHH, ATP, IC50 threshold 100 µM, ref Proctor et al. 2017): +VE (IC50 threshold of 100 µM) | PHH ATP <100uM (PHH): +VE (IC50 threshold of 100 µM) | Cmax [15]: 11.3 µM | hLiMTs ATP <20 x Cmax (PHH spheroids; In vitro Assay, ref Vorrink 2018): +VE (IC20 < 20 × Cmax.tot cut-off) | DILI in vitro assay prediction, Vorrink (2018) (PHH spheroids; PHH spheroids, ATP, 14 days, IC20 < 20 × Cmax.tot, ref Vorrink et al. 2018): +VE (IC20 < 20 × Cmax.tot cut-off) | HepaRG <25x Avg Cmax ATP (HepaRG spheroids [16]; ATP endpoint, cut-off <25x Avg Cmax): +ve | HepaRG <100x Avg Cmaxu ATP (HepaRG spheroids [16]; ATP endpoint, cut-off <100x Avg Cmaxu): +ve (<100x Avg Cmaxu) | HepaRG <25x Avg Cmax HCS (HepaRG spheroids [16]; HCS endpoints, cut-off <25x Avg Cmax): +ve | HepaRG <100x Avg Cmaxu HCS (HepaRG spheroids [16]; HCS endpoints, cut-off <100x Avg Cmaxu): +ve (<100x Avg Cmaxu) | HepaRG <25x Avg Cmax All (HepaRG spheroids [16]; all endpoints (ATP and HCS), cut-off <25x Avg Cmax): +ve | HepaRG Cmax max All (HepaRG spheroids [16]; all endpoints, Cmax max used): +ve | HepaRG Cmax min All (HepaRG spheroids [16]; all endpoints, Cmax min used): +ve | HepaRG <10 uM All (HepaRG spheroids [16]; all endpoints, cut-off <10 uM): +ve (<10 uM) | HepaRG <100x Avg Cmaxu All (HepaRG spheroids [16]; all endpoints, cut-off <100x Avg Cmaxu): +ve (<100x Avg Cmaxu) | AC50 (HepaRG spheroids [16]; read-out: ATP endpoint AC50): 8.42 µM | minimal effective concentration (HepaRG spheroids [16]; read-out: ATP endpoint MEC): 7.27 µM | AC50 (HepaRG spheroids [16]; read-out: HCS endpoint AC50): 15.4 µM | minimal effective concentration (HepaRG spheroids [16]; read-out: HCS endpoint MEC): 0.713 µM | DILI Score (FDA) (1-8) [9]: 8 | AC50 (hLiMTs [17]; read-out: ATP endpoint AC50): 9.09 µM | minimal effective concentration (hLiMTs [17]; read-out: ATP endpoint MEC): 6.84 µM | AC50 (hLiMTs [17]; read-out: HCS endpoint AC50): 12.4 µM | minimal effective concentration (hLiMTs [17]; read-out: HCS endpoint MEC): 5.88 µM | hLiMTs <25x Avg Cmax ATP (hLiMTs [17]; hLiMTs, ATP endpoint, cut-off <25x Avg Cmax): +ve | hLiMTs <100x Avg Cmaxu ATP (hLiMTs [17]; hLiMTs, ATP endpoint, cut-off <100x Avg Cmaxu): +ve (<100x Avg Cmaxu) | hLiMTs <25x Avg Cmax HCS (hLiMTs [17]; hLiMTs, HCS endpoints, cut-off <25x Avg Cmax): +ve | hLiMTs <100x Avg Cmaxu HCS (hLiMTs [17]; hLiMTs, HCS endpoints, cut-off <100x Avg Cmaxu): +ve (<100x Avg Cmaxu) | hLiMTs <25x Avg Cmax All (hLiMTs [17]; hLiMTs, all endpoints (ATP and HCS), cut-off <25x Avg Cmax): +ve | hLiMTs Cmax max All (hLiMTs [17]; hLiMTs, all endpoints, Cmax max used): +ve | hLiMTs Cmax min All (hLiMTs [17]; hLiMTs, all endpoints, Cmax min used): +ve | hLiMTs <10 uM All (hLiMTs [17]; hLiMTs, all endpoints, cut-off <10 uM): +ve (<10 uM) | hLiMTs <100x Avg Cmaxu All (hLiMTs [17]; hLiMTs, all endpoints, cut-off <100x Avg Cmaxu): +ve (<100x Avg Cmaxu) | Upcytes multi donor assay 14day data (Upcyte human hepatocytes): +VE | fu [18]: 0.050
